Experimental data as given in ChEMBL document CHEMBL1201862, “PubChem BioAssay data set” (2004).
Structures can show the parent of a compound that is named as a salt.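 Method: 48-hour compound exposure of cells in 96-well plates, five concentrations, linear interpolation of endpoints. Here, GI50 denotes the concentration required for 50% inhibition of growth.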 Calls of active or inactive are those of the source. Rule as the data show it: active = GI50 up to about 1.1 µM and inactive = higher.

Columns and labels:
Assay in all cases: NCI tumour cell line growth inhibition, 48 h
[1] = system: 786-0
[2] = system: A498
[3] = system: A549
[4] = system: CCRF-CEM
[5] = system: HCC 2998
[6] = system: M14
[7] = system: MDA-MB-231
[8] = system: MDA-MB-435
[9] = system: MOLT-4
[10] = system: Malme-3M
[11] = system: NCI-H226
[12] = system: NCI-H23
[13] = system: NCI/ADR-RES
[14] = system: OVCAR-5
[15] = system: RXF 393
[16] = system: SK-MEL-2
[17] = system: SK-MEL-5
[18] = system: SK-OV-3
[19] = system: SNB-75
[20] = system: TK-10

O=C(/C=C/c1ccc(-c2ccccc2)cc1)NCc1ccc(C(=O)NCCc2c[nH]c3ccccc23)cc1
GI50 [1]: 11.1 µM (inactive) | GI50 [2]: 32.8 µM (inactive) | GI50 [3]: 19.4 µM (inactive) | GI50 [4]: 13.9 µM (inactive) | GI50 [5]: 83.4 µM (inactive) | GI50 [6]: 80.9 µM (inactive) | GI50 [7]: 14.6 µM (inactive) | GI50 [8]: > 100 µM (inactive) | GI50 [9]: 16.6 µM (inactive) | GI50 [10]: 33.4 µM (inactive) | GI50 [11]: 24.4 µM (inactive) | GI50 [12]: 22.1 µM (inactive) | GI50 [13]: 60 µM (inactive) | GI50 [14]: 11.5 µM (inactive) | GI50 [15]: 19.8 µM (inactive) | GI50 [16]: 33.5 µM (inactive) | GI50 [17]: 26 µM (inactive) | GI50 [18]: 14.5 µM (inactive) | GI50 [19]: 11.2 µM (inactive) | GI50 [20]: 26.2 µM (inactive)

Nc1nc(Cl)c(N)c(NC23CC4CC(CC(C4)C2)C3)n1
GI50 [1]: 1.67 µM (inactive) | GI50 [2]: 2.88 µM (inactive) | GI50 [3]: 2.13 µM (inactive) | GI50 [4]: 1.62 µM (inactive) | GI50 [5]: 2.25 µM (inactive) | GI50 [6]: 1.36 µM (inactive) | GI50 [7]: 1.79 µM (inactive) | GI50 [8]: 1.41 µM (inactive) | GI50 [9]: 2.39 µM (inactive) | GI50 [10]: 3.16 µM (inactive) | GI50 [11]: 1.92 µM (inactive) | GI50 [12]: 2.23 µM (inactive) | GI50 [13]: 2.43 µM (inactive) | GI50 [14]: 1.4 µM (inactive) | GI50 [15]: 1.61 µM (inactive) | GI50 [16]: 0.147 µM (active) | GI50 [17]: 1.72 µM (inactive) | GI50 [18]: 4.32 µM (inactive) | GI50 [19]: 2.1 µM (inactive) | GI50 [20]: 2.38 µM (inactive)

O=c1[nH]c(=O)n([C@H]2CCCO2)cc1F
GI50 [1]: 984 µM (inactive) | GI50 [2]: 501 µM (inactive) | GI50 [3]: 446 µM (inactive) | GI50 [4]: 982 µM (inactive) | GI50 [5]: 89.7 µM (inactive) | GI50 [6]: 740 µM (inactive) | GI50 [7]: > 2720 µM (inactive) | GI50 [8]: 615 µM (inactive) | GI50 [9]: 830 µM (inactive) | GI50 [10]: 493 µM (inactive) | GI50 [11]: 625 µM (inactive) | GI50 [12]: 759 µM (inactive) | GI50 [13]: 923 µM (inactive) | GI50 [14]: 953 µM (inactive) | GI50 [15]: 769 µM (inactive) | GI50 [16]: 719 µM (inactive) | GI50 [17]: 845 µM (inactive) | GI50 [18]: 681 µM (inactive) | GI50 [19]: 560 µM (inactive) | GI50 [20]: 764 µM (inactive)

Nc1ncn([C@H]2C[C@H](O)[C@@H](CO)O2)c(=O)n1 [DECITABINE]
GI50 [1]: 9.42 µM (inactive) | GI50 [2]: 135 µM (inactive) | GI50 [3]: 21.4 µM (inactive) | GI50 [4]: 4.59 µM (inactive) | GI50 [5]: 105 µM (inactive) | GI50 [6]: 9.59 µM (inactive) | GI50 [7]: 17.8 µM (inactive) | GI50 [8]: 2.49 µM (inactive) | GI50 [9]: 11.6 µM (inactive) | GI50 [10]: 127 µM (inactive) | GI50 [11]: 68.7 µM (inactive) | GI50 [12]: 118 µM (inactive) | GI50 [13]: > 347 µM (inactive) | GI50 [14]: 106 µM (inactive) | GI50 [15]: 136 µM (inactive) | GI50 [16]: 38.1 µM (inactive) | GI50 [17]: 74.6 µM (inactive) | GI50 [18]: 76.2 µM (inactive) | GI50 [19]: 82.8 µM (inactive) | GI50 [20]: 46.8 µM (inactive)

CNNCc1ccc(C(=O)NC(C)C)cc1 [PROCARBAZINE HYDROCHLORIDE]
GI50 [1]: 254 µM (inactive) | GI50 [2]: > 500 µM (inactive) | GI50 [3]: 335 µM (inactive) | GI50 [4]: 461 µM (inactive) | GI50 [5]: > 398 µM (inactive) | GI50 [6]: > 500 µM (inactive) | GI50 [7]: > 500 µM (inactive) | GI50 [8]: > 379 µM (inactive) | GI50 [9]: 426 µM (inactive) | GI50 [10]: > 457 µM (inactive) | GI50 [11]: > 381 µM (inactive) | GI50 [12]: > 500 µM (inactive) | GI50 [13]: > 500 µM (inactive) | GI50 [14]: > 439 µM (inactive) | GI50 [15]: > 423 µM (inactive) | GI50 [16]: > 500 µM (inactive) | GI50 [17]: 385 µM (inactive) | GI50 [18]: > 493 µM (inactive) | GI50 [19]: 435 µM (inactive) | GI50 [20]: > 500 µM (inactive)
